From PubChem BioAssay AID1259407 (Chemical Carcinogenesis Research Information System (CCRIS), 2018)
The source made the active and inactive calls. How the calls were made is not given here.

System: CCRIS mutagenicity, Ames/micronucleus/aberration tests
Assay: CCRIS mutagenicity studies
[1] = Test System: AMES SALMONELLA TYPHIMURIUM, Strain/Indicator: TA98, Metabolic Activation: NONE, Method: PREINCUBATION
[2] = Test System: AMES SALMONELLA TYPHIMURIUM, Strain/Indicator: TA100, Metabolic Activation: NONE, Method: PREINCUBATION

Cc1ccc(N)cc1O
mutagenic call (Test System: AMES SALMONELLA TYPHIMURIUM, Strain/Indicator: TA97, Metabolic Activation: HAMSTER, LIVER, S-9, AROCLOR 1254 (10%), Method: PREINCUBATION): active; positive
mutagenic call (Test System: AMES SALMONELLA TYPHIMURIUM, Strain/Indicator: TA97, Metabolic Activation: NONE, Method: PREINCUBATION): inactive; negative
mutagenic call (Test System: AMES SALMONELLA TYPHIMURIUM, Strain/Indicator: TA97, Metabolic Activation: RAT, LIVER, S-9, AROCLOR 1254 (10%), Method: PREINCUBATION): active; positive
mutagenic call (Test System: AMES SALMONELLA TYPHIMURIUM, Strain/Indicator: TA98, Metabolic Activation: HAMSTER LIVER S-9, AROCLOR 1254, Method: STANDARD PLATE): inactive; negative
mutagenic call (Test System: AMES SALMONELLA TYPHIMURIUM, Strain/Indicator: TA98, Metabolic Activation: HAMSTER, LIVER, S-9, AROCLOR 1254 (10%), Method: PREINCUBATION): active; positive
mutagenic call [1]: inactive; negative
mutagenic call (Test System: AMES SALMONELLA TYPHIMURIUM, Strain/Indicator: TA98, Metabolic Activation: NONE, Method: STANDARD PLATE): inactive; negative
mutagenic call (Test System: AMES SALMONELLA TYPHIMURIUM, Strain/Indicator: TA98, Metabolic Activation: RAT LIVER S-9, AROCLOR 1254, Method: STANDARD PLATE): inactive; negative
mutagenic call (Test System: AMES SALMONELLA TYPHIMURIUM, Strain/Indicator: TA98, Metabolic Activation: RAT, LIVER, S-9, AROCLOR 1254 (10%), Method: PREINCUBATION): active; positive
mutagenic call (Test System: AMES SALMONELLA TYPHIMURIUM, Strain/Indicator: TA100, Metabolic Activation: HAMSTER LIVER S-9, AROCLOR 1254, Method: STANDARD PLATE): inactive; negative
mutagenic call (Test System: AMES SALMONELLA TYPHIMURIUM, Strain/Indicator: TA100, Metabolic Activation: HAMSTER, LIVER, S-9, AROCLOR 1254 (10%), Method: PREINCUBATION): active; positive
mutagenic call [2]: inactive; negative
mutagenic call (Test System: AMES SALMONELLA TYPHIMURIUM, Strain/Indicator: TA100, Metabolic Activation: NONE, Method: STANDARD PLATE): inactive; negative
mutagenic call (Test System: AMES SALMONELLA TYPHIMURIUM, Strain/Indicator: TA100, Metabolic Activation: RAT LIVER S-9, AROCLOR 1254, Method: STANDARD PLATE): inactive; negative
mutagenic call (Test System: AMES SALMONELLA TYPHIMURIUM, Strain/Indicator: TA100, Metabolic Activation: RAT, LIVER, S-9, AROCLOR 1254 (10%), Method: PREINCUBATION): active; positive
mutagenic call (Test System: AMES SALMONELLA TYPHIMURIUM, Strain/Indicator: TA102, Metabolic Activation: HAMSTER LIVER S-9, AROCLOR 1254, Method: STANDARD PLATE): inactive; negative
mutagenic call (Test System: AMES SALMONELLA TYPHIMURIUM, Strain/Indicator: TA102, Metabolic Activation: NONE, Method: STANDARD PLATE): inactive; negative
mutagenic call (Test System: AMES SALMONELLA TYPHIMURIUM, Strain/Indicator: TA102, Metabolic Activation: RAT LIVER S-9, AROCLOR 1254, Method: STANDARD PLATE): inactive; negative
mutagenic call (Test System: AMES SALMONELLA TYPHIMURIUM, Strain/Indicator: TA1535, Metabolic Activation: HAMSTER LIVER S-9, AROCLOR 1254, Method: STANDARD PLATE): inactive; negative
mutagenic call (Test System: AMES SALMONELLA TYPHIMURIUM, Strain/Indicator: TA1535, Metabolic Activation: HAMSTER, LIVER, S-9, AROCLOR 1254 (10%), Method: PREINCUBATION): inactive; negative
mutagenic call (Test System: AMES SALMONELLA TYPHIMURIUM, Strain/Indicator: TA1535, Metabolic Activation: NONE, Method: PREINCUBATION): inactive; negative
mutagenic call (Test System: AMES SALMONELLA TYPHIMURIUM, Strain/Indicator: TA1535, Metabolic Activation: NONE, Method: STANDARD PLATE): inactive; negative
mutagenic call (Test System: AMES SALMONELLA TYPHIMURIUM, Strain/Indicator: TA1535, Metabolic Activation: RAT LIVER S-9, AROCLOR 1254, Method: STANDARD PLATE): inactive; negative
mutagenic call (Test System: AMES SALMONELLA TYPHIMURIUM, Strain/Indicator: TA1535, Metabolic Activation: RAT, LIVER, S-9, AROCLOR 1254 (10%), Method: PREINCUBATION): inactive; negative
mutagenic call (Test System: AMES SALMONELLA TYPHIMURIUM, Strain/Indicator: TA1537, Metabolic Activation: HAMSTER LIVER S-9, AROCLOR 1254, Method: STANDARD PLATE): inactive; negative
mutagenic call (Test System: AMES SALMONELLA TYPHIMURIUM, Strain/Indicator: TA1537, Metabolic Activation: NONE, Method: STANDARD PLATE): inactive; negative
mutagenic call (Test System: AMES SALMONELLA TYPHIMURIUM, Strain/Indicator: TA1537, Metabolic Activation: RAT LIVER S-9, AROCLOR 1254, Method: STANDARD PLATE): inactive; negative
mutagenic call (Test System: Mouse lymphoma, Strain/Indicator: L5178Y (tk+/tk-), Metabolic Activation: None, Method: Suspension/plate): active; positive
mutagenic call (Test System: Mouse lymphoma, Strain/Indicator: L5178Y (tk+/tk-), Metabolic Activation: Rat, Liver, S-9, Aroclor 1254, Method: Suspension/plate): inactive; negative

Nc1c(Cl)cc([N+](=O)[O-])cc1Cl
mutagenic call (Test System: AMES SALMONELLA TYPHIMURIUM, Strain/Indicator: TA98, Metabolic Activation: HAMSTER, LIVER, S-9, AROCLOR 1254 (30%), Method: PREINCUBATION): active; positive
mutagenic call [1]: active; positive
mutagenic call (Test System: AMES SALMONELLA TYPHIMURIUM, Strain/Indicator: TA98, Metabolic Activation: RAT, LIVER, S-9, AROCLOR 1254 (30%), Method: PREINCUBATION): active; positive
mutagenic call (Test System: AMES SALMONELLA TYPHIMURIUM, Strain/Indicator: TA100, Metabolic Activation: HAMSTER, LIVER, S-9, AROCLOR 1254 (30%), Method: PREINCUBATION): inactive; negative
mutagenic call [2]: inactive; negative
mutagenic call (Test System: AMES SALMONELLA TYPHIMURIUM, Strain/Indicator: TA100, Metabolic Activation: RAT, LIVER, S-9, AROCLOR 1254 (30%), Method: PREINCUBATION): inactive; negative
mutagenic call (Test System: AMES SALMONELLA TYPHIMURIUM, Strain/Indicator: TA100, Metabolic Activation: RAT, LIVER, S-9, KANECHLOR 500, Method: PREINCUBATION): inactive; negative
